Some test systems named below: HOP-62 NSCLC; HOP-92 NSCLC; LXFL 529 NSCLC; M19-MEL melanoma; OVCAR-8 ovarian; SF-539 CNS; SW-620 colon; A498 renal.
Test in all cases: growth of human tumour cells (NCI), 48 h

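Tested at 5 concentrations; 48 h exposure; 96-well plates; endpoints linearly interpolated, else capped at highest concentration. At the GI50, growth is halved. TGI: total growth inhibition.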

Take `Cc1cc(C)c([O-])c(-[n+]2c(-c3ccccc3)cc(-c3ccccc3)cc2-c2ccccc2)c1`: the TGI in the experiment on HOP-62 NSCLC turned out to be 22.8 µM; in the experiment with HOP-92 NSCLC, 5.48 µM; with LXFL 529 NSCLC it was 14.4 µM; in the experiment on M19-MEL melanoma it was 13.2 µM; in the experiment with OVCAR-8 ovarian, 17.7 µM; in the experiment on SF-539 CNS it was 26.9 µM. Besides, in the experiment with SW-620 colon, the TGI stood at 15.7 µM.
`O=C1CC[C@@H](S(=O)(=O)c2ccccc2)[C@H](/C=C/c2ccccc2)O1`: the TGI in the experiment on A498 renal, in the experiment with HOP-62 NSCLC, in the experiment with LXFL 529 NSCLC, in the experiment with M19-MEL melanoma, in the experiment on OVCAR-8 ovarian and in the experiment with SF-539 CNS was greater than 100 µM each time. Also, the TGI with SW-620 colon was greater than 100 µM.
For `CCP(C)(=O)CC`, the TGI in the experiment with HOP-62 NSCLC, with HOP-92 NSCLC, in the experiment with LXFL 529 NSCLC, with M19-MEL melanoma, in the experiment on OVCAR-8 ovarian and in the experiment with SF-539 CNS was greater than 100 µM in each case. The TGI with SW-620 colon is greater than 100 µM.
Consider `CC(=O)[CH-]C(=O)c1ccccc1.CC(=O)[CH-]C(=O)c1ccccc1.CC(=O)[CH-]C(=O)c1ccccc1.[Cl-].[Hf+4]`, for which the GI50 is 25.5 µM in the experiment with A498 renal; 51.2 µM in the experiment on HOP-62 NSCLC; 18.9 µM with HOP-92 NSCLC; 39.4 µM with LXFL 529 NSCLC; 27.3 µM with M19-MEL melanoma; 27.9 µM with OVCAR-8 ovarian. Moreover, in the experiment with SW-620 colon, the GI50 was 52.2 µM. For the same molecule, the TGI with A498 renal is 75.5 µM; in the experiment with HOP-62 NSCLC, greater than 100 µM; in the experiment with HOP-92 NSCLC it was 50.4 µM; in the experiment on LXFL 529 NSCLC, greater than 100 µM; in the experiment with M19-MEL melanoma, greater than 100 µM; in the experiment on OVCAR-8 ovarian, greater than 100 µM. In the experiment on SW-620 colon, this molecule came in with a TGI greater than 100 µM.
Consider `NC(N)=NCCCC(Nc1c2ccccc2nc2ccccc12)C(=O)O` (centres undefined), for which the TGI in the experiment on HOP-92 NSCLC, in the experiment on LXFL 529 NSCLC, in the experiment on M19-MEL melanoma, with OVCAR-8 ovarian, in the experiment with SF-539 CNS and in the experiment on SW-620 colon was greater than 100 µM in each case.
For `COc1ccc(C(=O)C(c2ccc(OC)cc2)C2(O)C(=O)Nc3c(Cl)cc(Cl)cc32)cc1` (centres undefined), the TGI in the experiment with HOP-62 NSCLC was 54.4 µM; in the experiment on HOP-92 NSCLC, 33.2 µM; with LXFL 529 NSCLC, 28.4 µM; in the experiment on OVCAR-8 ovarian, 56.2 µM; in the experiment on SW-620 colon, 39.1 µM.
On to `C=C1C2CCCC1C1(S(C)(=O)=O)CCCCC21O` (centres undefined), for which the TGI with LXFL 529 NSCLC, with M19-MEL melanoma, in the experiment on OVCAR-8 ovarian, with SF-539 CNS and in the experiment with SW-620 colon was greater than 100 µM in each case.
With `Cc1c(C(=O)/C=C/c2ccc([N+](=O)[O-])cc2)[n+](=O)c2ccccc2n1[O-]`, the TGI with A498 renal, in the experiment with HOP-62 NSCLC, in the experiment with HOP-92 NSCLC, in the experiment with LXFL 529 NSCLC, in the experiment on M19-MEL melanoma and with OVCAR-8 ovarian was greater than 100 µM each time. The TGI in the experiment on SF-539 CNS and with SW-620 colon was greater than 100 µM each time.
For `CS(=O)(=O)ON1C(=O)c2ccc(N)cc2C1=O`, the TGI in the experiment with A498 renal is greater than 100 µM; in the experiment with HOP-62 NSCLC it was greater than 100 µM; in the experiment with HOP-92 NSCLC it was greater than 100 µM; with LXFL 529 NSCLC it was greater than 100 µM; in the experiment on M19-MEL melanoma it was greater than 100 µM; in the experiment with OVCAR-8 ovarian, 60.8 µM. The TGI with SF-539 CNS and in the experiment on SW-620 colon was greater than 100 µM each time.
`COC1(OC)CCC2(C)OC(c3ccccc3)C1O2` (centres undefined): the TGI in the experiment on HOP-62 NSCLC, in the experiment on LXFL 529 NSCLC, in the experiment with OVCAR-8 ovarian, in the experiment on SF-539 CNS and with SW-620 colon was greater than 100 µM in each case.
With `O=C(CC(=O)N1N=C(n2ccc3ccccc32)CC1c1ccccc1)Nc1ccccc1Cl` (centres undefined), the TGI in the experiment on A498 renal, in the experiment with HOP-62 NSCLC, in the experiment with HOP-92 NSCLC, in the experiment with LXFL 529 NSCLC, with M19-MEL melanoma and in the experiment on OVCAR-8 ovarian was greater than 100 µM throughout. Also, the TGI in the experiment on SF-539 CNS and with SW-620 colon was greater than 100 µM throughout.
As to `CC(=O)[CH-]C(=O)c1ccccc1.CC(=O)[CH-]C(=O)c1ccccc1.CC[C@H](CCC(C)[C@H]1CCC2[C@@H]3CC=C4C[C@@H]([O-])CC[C@]4(C)C3CC[C@@]21C)C(C)C.CC[C@H](CCC(C)[C@H]1CCC2[C@@H]3CC=C4C[C@@H]([O-])CC[C@]4(C)C3CC[C@@]21C)C(C)C.Cl.[Ti+4]` (some centres undefined), the GI50 in the experiment with A498 renal and in the experiment with LXFL 529 NSCLC was greater than 25 µM throughout. For the same molecule, the TGI in the experiment on A498 renal, in the experiment with HOP-62 NSCLC, in the experiment on LXFL 529 NSCLC, in the experiment on OVCAR-8 ovarian, in the experiment with SF-539 CNS and with SW-620 colon was greater than 25 µM in each case.
Consider `CC(C)(C)c1cc(Cc2ccc(S(C)(=O)=O)cc2)c(O)c(C(C)(C)C)c1`, for which the TGI came to 30.3 µM with A498 renal; 29.8 µM in the experiment with HOP-62 NSCLC; 29.2 µM in the experiment on LXFL 529 NSCLC; 32.7 µM in the experiment on M19-MEL melanoma; 28.1 µM in the experiment with OVCAR-8 ovarian; 30.7 µM with SF-539 CNS. In the experiment on SW-620 colon, this molecule returned a TGI of 31.2 µM.
Regarding `CN(C)CC1CCCC/C1=N\OC(=O)c1ccccc1` (centres undefined), the TGI with A498 renal, with HOP-62 NSCLC, in the experiment with HOP-92 NSCLC, in the experiment on LXFL 529 NSCLC, in the experiment on M19-MEL melanoma and in the experiment with OVCAR-8 ovarian was greater than 100 µM each time. Besides, the TGI in the experiment with SF-539 CNS and in the experiment with SW-620 colon was greater than 100 µM in each case.
Regarding `Cc1[nH]c2ccccc2c1/C=C/c1c(C)[nH]c2ccccc12`, the TGI in the experiment on A498 renal, with HOP-62 NSCLC, in the experiment on LXFL 529 NSCLC, in the experiment on M19-MEL melanoma, in the experiment with OVCAR-8 ovarian and in the experiment on SF-539 CNS was greater than 100 µM each time. Also, the TGI with SW-620 colon is greater than 100 µM.
For `[CH3][Ge]([CH3])([CH2]CC#N)[S]c1ccccc1`, the GI50 in the experiment with HOP-62 NSCLC is 14.6 µM; with HOP-92 NSCLC, 31.2 µM; with LXFL 529 NSCLC, 13.5 µM; with M19-MEL melanoma, 16 µM; in the experiment on OVCAR-8 ovarian, 11.5 µM; in the experiment on SF-539 CNS it was 12.9 µM. The GI50 in the experiment on SW-620 colon is 14.1 µM. Also, the TGI in the experiment with HOP-62 NSCLC is 38.1 µM; in the experiment on HOP-92 NSCLC, 79.7 µM; with LXFL 529 NSCLC, 27.5 µM; in the experiment on M19-MEL melanoma, 48 µM; with OVCAR-8 ovarian, 46.5 µM; with SF-539 CNS it was 27.8 µM. In the experiment with SW-620 colon, the TGI is 29.4 µM.

(Values after PubChem BioAssay (NCI).)
